The experiment can be described thus: determined in L-pipecolate oxidase from Rehsus monkey.

Molecules are shown by their SMILES.

As usually defined, the Ki is the equilibrium dissociation constant of an inhibitor or competing ligand from its target. Take `O=C(O)[C@@H]1CCCCN1` [(S)-pipecolate]: the inhibition constant Ki is 130 µM.

The values are drawn from BindingDB's records for doi:10.1021/jm960331f (Oregon State University, 1996).
